Experimental data from ChEMBL document CHEMBL1201862, “PubChem BioAssay data set” (2004).
Calls of active or inactive are those of the source.

Key:
cells [1] = format: functional, cell-based; conditions: HEK-CNG
Galanin receptor type 3 = Galanin receptor type 3 (Homo sapiens, UniProt O60755); test: Fluorescence-based cell-based primary high throughput dose response assay to identify antagonists of the Galanin Receptor 3 (GalR3).; format: functional
[2] = biological target: T1, Methionyl-tRNA synthetase, putative (Trypanosoma brucei brucei, UniProt Q38C91); format: functional, Trypanosoma brucei brucei strain 927/4 GUTat10.1
T1 sequence (Q38C91 whole entry): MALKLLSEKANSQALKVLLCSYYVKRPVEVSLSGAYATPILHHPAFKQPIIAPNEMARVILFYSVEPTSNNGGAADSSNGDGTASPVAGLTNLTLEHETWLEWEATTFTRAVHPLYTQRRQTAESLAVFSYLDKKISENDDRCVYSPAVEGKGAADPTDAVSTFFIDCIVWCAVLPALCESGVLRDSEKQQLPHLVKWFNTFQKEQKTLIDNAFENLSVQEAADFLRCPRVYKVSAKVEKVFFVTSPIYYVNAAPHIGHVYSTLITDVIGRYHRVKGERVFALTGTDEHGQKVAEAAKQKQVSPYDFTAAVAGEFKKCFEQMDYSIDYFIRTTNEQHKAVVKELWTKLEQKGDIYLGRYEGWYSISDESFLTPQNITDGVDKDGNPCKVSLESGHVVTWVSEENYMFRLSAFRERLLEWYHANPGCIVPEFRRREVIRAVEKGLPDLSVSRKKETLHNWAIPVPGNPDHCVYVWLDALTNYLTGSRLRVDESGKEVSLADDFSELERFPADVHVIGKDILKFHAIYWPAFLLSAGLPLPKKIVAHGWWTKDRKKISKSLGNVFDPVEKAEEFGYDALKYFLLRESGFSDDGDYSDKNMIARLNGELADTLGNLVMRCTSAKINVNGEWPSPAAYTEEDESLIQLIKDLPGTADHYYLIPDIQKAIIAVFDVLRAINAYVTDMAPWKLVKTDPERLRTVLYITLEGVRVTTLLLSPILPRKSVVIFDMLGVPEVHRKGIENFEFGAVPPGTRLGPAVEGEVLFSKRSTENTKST

[3] = Counterscreen for inhibitors of Trypanosoma brucei methionyl tRNA synthetase (MetRS): Luminescence-based cell-based high throughput dose response assay to identify compounds that are cytotoxic to Jurkat human T lymphocyte cells.; format: functional
[4] = biological target: T1, Methionyl-tRNA synthetase, putative; format: functional, Trypanosoma brucei brucei strain 927/4 GUTat10.1; remark: listed apart in the source
[5] = biological target: Fructose-bisphosphate aldolase (Mycobacterium tuberculosis, UniProt P9WQA3); test: Fluorescence-based biochemical high throughput dose response assay for inhibitors of the fructose-bisphosphate aldolase (FBA) of M. tuberculosis.; format: functional
[6] = biological target: T2, Trace amine-associated receptor 1 (Homo sapiens, UniProt Q96RJ0); test: Counterscreen for agonists of the human trace amine associated receptor 1 (hTAAR1): Fluorescence-based cell-based high throughput dose response assay to identify hTAAR1 agonist that also desensitize TAAR1 receptor response.; format: functional
T2 sequence (Q96RJ0 whole entry): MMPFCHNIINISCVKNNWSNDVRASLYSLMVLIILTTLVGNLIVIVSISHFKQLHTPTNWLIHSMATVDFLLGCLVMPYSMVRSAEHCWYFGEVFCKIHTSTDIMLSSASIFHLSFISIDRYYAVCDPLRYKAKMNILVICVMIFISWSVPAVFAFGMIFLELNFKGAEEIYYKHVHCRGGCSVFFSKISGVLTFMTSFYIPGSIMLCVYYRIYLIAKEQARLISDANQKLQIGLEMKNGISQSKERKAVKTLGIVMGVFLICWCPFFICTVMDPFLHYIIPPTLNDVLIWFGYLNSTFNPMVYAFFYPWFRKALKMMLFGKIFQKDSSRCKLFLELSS

[7] = biological target: T2, Trace amine-associated receptor 1; test: Fluorescence-based cell-based high throughput dose response assay to identify agonists of the human trace amine associated receptor 1 (TAAR1).; format: functional
cells [8] = format: functional, cell-based
cells [9] = format: functional, cell-based; remark: listed apart in the source
[10] = Luminescence Cell-Based Dose Response to Identify Activators of Luciferase Translation or Activity in H4-C Neuroglioblastoma Cells. [Related pubchem assays: 1829 (Project Summary), 1814 (Primary HTS)]; format: functional
BJ [11] = test: cells; format: functional, cell-based; conditions: Homo sapiens
H4 = test: Luminescence Cell-Based Dose Response HTS to Identify Activators of 5'UTR Stem-Loop Driven Prion Protein mRNA Translation in H4 Neuroglioblastoma Cells. [Related pubchem assays: 1829 (Project Summary), 1814 (Primary HTS)]; format: functional; conditions: Homo sapiens
Beta-lactamase [12] = biological target: Beta-lactamase (Salmonella choleraesuis (strain SC-B67), UniProt Q5J463)
Streptokinase A = biological target: T3, Streptokinase A (Streptococcus pyogenes serotype M1, UniProt P10520); test: S. pyogenes streptokinase expression inhibitors, potency, dose response, plasminogen activation absorbance, OD405 (AID 1914); format: functional, Streptococcus pyogenes M1 GAS;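 further: secreted streptokinase activity via plasminogen activation per viability signal from cell pellet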
T3 sequence (P10520 whole entry): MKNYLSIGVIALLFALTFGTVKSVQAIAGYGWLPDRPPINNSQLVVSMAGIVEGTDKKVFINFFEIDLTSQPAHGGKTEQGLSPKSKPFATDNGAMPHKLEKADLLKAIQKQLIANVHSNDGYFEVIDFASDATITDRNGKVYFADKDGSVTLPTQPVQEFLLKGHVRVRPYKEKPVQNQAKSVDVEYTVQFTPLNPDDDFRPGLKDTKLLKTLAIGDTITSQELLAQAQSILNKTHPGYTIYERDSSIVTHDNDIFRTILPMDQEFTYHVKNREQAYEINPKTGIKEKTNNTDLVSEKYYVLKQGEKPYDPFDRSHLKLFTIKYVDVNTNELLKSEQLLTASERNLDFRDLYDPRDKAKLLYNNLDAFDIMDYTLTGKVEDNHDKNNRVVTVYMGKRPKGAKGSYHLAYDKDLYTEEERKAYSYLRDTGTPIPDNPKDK

BJ [13] = test: cytotoxicity toward BJ-TERT-LT-ST fibroblasts, dose response, cell-based, RAS-independent, luminescence (AID 1935); format: functional; conditions: Homo sapiens;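 further: BJ fibroblasts immortalized with TERT plus LT and ST oncogenes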
[14] = Luminescence Cell-Based Dose Confirmation to Identify Activators of 5'UTR Stem-Loop Driven Alpha-Synuclein mRNA Translation in H4 Neuroglioblastoma Cells. [Related pubchem assays: 1829 (Project Summary), 1814 (Primary HTS)]; format: functional
[15] = Luminescence Cell-Based Dose Response to Identify Activators of 5'UTR Stem-Loop Driven Prion Protein mRNA Translation in H4-C Neuroglioblastoma Cells. [Related pubchem assays: 1829 (Project Summary), 1814 (Primary HTS)]; format: functional
BJ [16] = test: cytotoxicity toward BJ-TERT fibroblasts, dose response, cell-based, RAS-independent, luminescence (AID 1933); format: functional; conditions: Homo sapiens
Streptococcus = test: Group A Streptococcus viability loss, dose response, counter-screen for streptokinase expression inhibitor project, luminescence, BacTiterGlo (AID 1915); format: functional, organism-based;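 further: potency for reduction of bacterial viability or growth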
[17] = cytotoxicity toward DRD oncogenic fibroblasts, dose response, cell-based, non-viral oncogenic, luminescence (AID 1934); format: functional; conditions: Homo sapiens
Beta-lactamase [18] = biological target: Beta-lactamase (Pseudomonas aeruginosa, UniProt Q79MP6);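 further: biochemical dose-response test of metallo-beta-lactamase enzyme inhibition, read out by epi-absorbance; purified recombinant IMP-1 metallo-beta-lactamase with nitrocefin as substrate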
BJ [19] = test: cytotoxicity toward Ras-transformed BJeLR fibroblasts, dose response, cell-based, alamar blue fluorescence, cherrypicked samples (AID 2631); format: functional; conditions: Homo sapiens;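 further: confirmatory dose-response assay in RAS-dependent BJ fibroblasts engineered with TERT, LT and ST, with cytotoxicity read by fluorescence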
[20] = tested on: Streptococcus sp. 'group A'; test: growth inhibition of control SK(-) GAS strain, dose response, counter-screen for streptokinase expression inhibitor project, luminescence, kanamycin, BacTiterGlo, confirmation (AID 1900); format: functional, organism-based

Sequence of Galanin receptor type 3 (O60755 whole entry): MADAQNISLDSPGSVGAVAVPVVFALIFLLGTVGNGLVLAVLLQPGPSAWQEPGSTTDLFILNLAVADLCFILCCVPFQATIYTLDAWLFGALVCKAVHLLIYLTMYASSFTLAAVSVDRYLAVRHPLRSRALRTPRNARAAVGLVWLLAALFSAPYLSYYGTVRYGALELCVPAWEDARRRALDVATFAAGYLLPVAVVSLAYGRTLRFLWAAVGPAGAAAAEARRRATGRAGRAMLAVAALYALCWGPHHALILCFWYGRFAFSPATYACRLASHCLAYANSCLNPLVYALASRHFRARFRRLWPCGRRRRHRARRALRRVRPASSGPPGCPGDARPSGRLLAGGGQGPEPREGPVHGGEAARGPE
Sequence of Beta-lactamase (Salmonella choleraesuis (strain SC-B67), UniProt Q5J463) (Q5J463 whole entry): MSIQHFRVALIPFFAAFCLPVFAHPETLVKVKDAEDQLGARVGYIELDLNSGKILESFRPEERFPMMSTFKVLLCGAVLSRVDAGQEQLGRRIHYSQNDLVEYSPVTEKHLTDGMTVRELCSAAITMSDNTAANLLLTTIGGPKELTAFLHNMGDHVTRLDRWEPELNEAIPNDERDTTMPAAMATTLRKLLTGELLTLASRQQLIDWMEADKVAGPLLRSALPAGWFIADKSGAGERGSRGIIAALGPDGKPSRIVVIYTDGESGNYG
Sequence of Fructose-bisphosphate aldolase (P9WQA3 whole entry): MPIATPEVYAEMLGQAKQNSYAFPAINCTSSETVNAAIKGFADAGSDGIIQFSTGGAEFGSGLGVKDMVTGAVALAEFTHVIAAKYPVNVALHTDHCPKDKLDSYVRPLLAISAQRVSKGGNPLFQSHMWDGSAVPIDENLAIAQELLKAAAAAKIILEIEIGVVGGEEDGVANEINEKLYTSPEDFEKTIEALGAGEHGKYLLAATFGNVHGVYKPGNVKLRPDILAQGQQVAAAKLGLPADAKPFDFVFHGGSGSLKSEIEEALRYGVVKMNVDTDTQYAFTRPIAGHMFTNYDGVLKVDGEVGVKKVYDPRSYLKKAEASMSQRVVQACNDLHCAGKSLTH
Sequence of Beta-lactamase (Pseudomonas aeruginosa, UniProt Q79MP6) (Q79MP6 whole entry): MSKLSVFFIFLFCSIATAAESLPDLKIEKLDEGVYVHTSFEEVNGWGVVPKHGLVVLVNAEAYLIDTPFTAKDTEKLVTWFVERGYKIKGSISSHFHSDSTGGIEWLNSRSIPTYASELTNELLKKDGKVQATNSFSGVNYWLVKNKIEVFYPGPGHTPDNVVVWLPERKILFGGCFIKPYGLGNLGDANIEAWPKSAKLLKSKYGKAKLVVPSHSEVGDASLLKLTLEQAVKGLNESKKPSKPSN

Question: What does the source list for `CN(Cc1ccc2c(c1)CCCN2C)C(=O)[C@H]1O[C@@H](n2cnc3c(N)ncnc32)[C@H](O)[C@@H]1O`?
Answer: EC50 (cells [1]): > 29.9 µM (inactive); IC50 (Galanin receptor type 3): 3.97 µM (active)

Question: With `CS(=O)(=O)c1ccc(Cl)c(NC(=O)c2ccc(-n3cncn3)c([N+](=O)[O-])c2)c1` as the compound, how does the IC50 [2] read?
Answer: 7.04 µM (active)

Question: What about the IC50 [3] of the same compound?
Answer: 83.3 µM (inactive)

Question: And the IC50 [4]?
Answer: 2.13 µM (active)

Question: Which IC50 [5] does the source give for `Cc1nn(-c2ccccc2)c(O)c1/C=N/c1cnc2ccccc2c1` here?
Answer: > 3.33 µM (active)

Question: Which results are given for `OCCNc1nc(Nc2ccccc2)nc2ccccc12`?
Answer: IC50 [6]: 0.2 µM (active); EC50 [7]: 0.0634 µM (active); IC50 (cells [8]): > 29.9 µM (inactive); EC50 (cells [9]): > 29.9 µM (inactive)

Question: Which results are given for `CCC(/C=C1\Sc2ccc3ccccc3c2N1C)=C\c1sc2ccc3ccccc3c2[n+]1C`?
Answer: EC50 [10]: > 12 µM (not active); EC50 (BJ [11]): 0.352 µM (inconclusive); EC50 (H4): > 120 µM (not active); IC50 (Beta-lactamase [12]): > 59.6 µM (inactive); EC50 (Streptokinase A): > 150 µM (not active); EC50 (BJ [13]): 0.343 µM (inconclusive); EC50 [14]: 3.46 µM (inconclusive); EC50 [15]: > 12 µM (not active); EC50 (BJ [16]): 0.164 µM (active); EC50 (Streptococcus): 15.5 µM (active); EC50 [17]: 0.395 µM (active); IC50 (Beta-lactamase [18]): > 59.6 µM (inactive); EC50 (BJ [19]): < 0.104 µM (active); EC50 [20]: 3.13 µM (active)
